Tests used:
C2C12 cells = experiment: Mitochondrial uncoupling activity by oxygen consumption rate (OCR) assay, Seahorse, in presence of oligomycin; format: cell-based, mouse; conditions: for minimal effective concentration: Mus musculus, C2C12, in the presence of oligomycin 2.5 μM, read-out: COCR-min: minimal concentration increasing OCR in the presence of oligomycin
Description: By definition, mitochondrial uncoupling is the decoupling of mitochondrial electron transport chain activity (mitochondrial oxidation) from ATP synthesis by mitochondrial ATP synthase. Technically, mitochondrial uncoupling activity is defined by the ability of a chemical compound to induce oxygen consumption of cells or isolated mitochondria in the presence of a mitochondrial ATP synthase inhibitor such as oligomycin. Accordingly, mitochondrial uncoupling activity was determined by oxygen consumption rate assay with a Seahorse XF96 or a Seahorse XF24 instrument following the vendor's instruction, using mouse myoblast C2C12 cells grown in a medium containing 10% fetal bovine serum. OCR was measured stepwise under the following conditions: first under normal growth conditions; then. OCR was measured after oligomycin was added to reach a final concentration of 2.5 μM); then OCR was measured after the compound was further added at varying concentrations. Finally, rotenone and antimycin A were added to confirm that the measurement was mitochondrial oxygen consumption (rotenone and […] mitochondrial electron transport chain inhibitors).
COCR-min the minimal concentration required for each compound to induce OCR in the presence of oligomycin, of disclosed compounds, was also determined by varying the final concentration of the compound added to the Seahorse OCR analysis experiment as described above (FIG. 2, varying testing compound concentration). Table 8 summarizes the mitochondrial uncoupling activity of disclosed compounds, as represented by COCR-min.

[1] = PO pharmacokinetic study, oral exposure (Example B3); format: in vivo; conditions: blood, po; for AUC at 24 h: 10 mg/kg gavage
Description: The blood concentration of the compound was then determined at 0 (pre-dosing), 5 min, 15 min, 30 min, 1 hr, 2 hr, 4 hr, 8 hr, 24 hr time points by LC-MS/MS analysis (See Tables 1 and 2, vide supra).

[2] = system: cultured mammalian cells, the NIH-3T3 cells, C2C12 cells, and other mammalian cell lines; experiment: Mitochondrial membrane potential (MMP) assay, TMRE (or DilC1(5)) staining, related to OCR induction; format: cell-based; conditions: ratio of concentration leading to 10% MMP retention (90% MMP loss, TMRE) to minimal concentration leading to OCR increase
Description: Mitochondrial membrane potential assay was performed using the standard TMRE (tetramethylrhodamine ethyl ester) staining method with cultured mammalian cells, the NIH-3T3 cells, C2C12 cells, and other mammalian cell lines. Cells were seeded in 6-well plates and cultured in DMEM medium supplemented with 10% fetal bovine serum and 2 mM glutamine. Cells were allowed to grow to the logarithmic growth phase prior to experiments. The cells were treated with each individual compound at various concentrations for two hours, followed by staining with TMRE at a final concentration of 100 nM for 15 minutes. The cells were then washed once with PBS, and examined under fluorescence microscopy. Cells treated with various concentrations of niclosamide ethanolamine were used as a positive control.
In some examples, mitochondrial membrane potential was measured with DilC1(5) staining. Briefly, DilC1(5) was added to the cells to 50 nM final concentration and the cells were incubated at 37° C., 5% CO2, for 15 to 30 minutes. Cells were washed once by adding 2 mL of warm phosphate-buffered saline (PBS). Mitochondrial staining was determined by fluorescence microscopy with 633 nm excitation using standard filters for far-red emission.
Using the ratio between C10% TMRE (the concentration at which 10% MMP remains, i.e. 90% MMP is lost) and Cmin-OCR (the concentration at which minimal OCR induction is observed), we categorized the MMP-retaining uncouplers into two groups.

AUC at 24 h [1] [ng·h/mL] | SMILES | minimal effective concentration (C2C12 cells) [µM] | C10%TMRE/Cmin-OCR [2] | also measured
60000 to 120000 | COCCOCc1cc(C(F)(F)F)cc2sc(NC(=O)c3cc(Cl)cc(CN4CCOCC4)c3O)nc12 [Compound 65, 5-chloro-2-hydroxy-N-(4-((2-methoxyethoxy)methyl)-6-(trifluoromethyl)benzo[d]thiazol-2-yl)-3-(morpholinomethyl)benzamide] | < 5 |  | 
10000 to 30000 | COc1cc(Cl)cc(C(=O)Nc2nc3ccc(C(F)(F)F)cc3s2)c1O [Example 97, 5-chloro-2-hydroxy-3-methoxy-N-(6-(trifluoromethyl)benzo[d]thiazol-2-yl)benzamide] | < 5 |  | 
10000 to 30000 | Cl.O=C(Nc1nc2ccc(C(F)(F)F)cc2s1)c1cc(Cl)cc(CCN2CCOCC2)c1O [Compound 17, 5-chloro-2-hydroxy-3-(2-morpholinoethyl)-N-(6-(trifluoromethyl)benzo[d]thiazol-2-yl)benzamide] | < 5 |  | 
 | COCc1cc(C(F)(F)F)cc2sc(NC(=O)c3cc(Cl)cc(C)c3O)nc12 [drawing 336] |  | [drawing 336] | 
30000 to 60000 | Cc1cc(Cl)cc(C(=O)Nc2nc3c(CN4CCN(C)CC4)cc(C(F)(F)F)cc3s2)c1O [Example 78, 5-chloro-2-hydroxy-3-methyl-N-(4-((4-methylpiperazin-1-yl)methyl)-6-(trifluoromethyl)benzo[d]thiazol-2-yl)benzamide] | < 5 |  | AUC(0-t) at 24 h ([1]; 10 mg/kg): 58400 ng·h/mL
 | Cc1cc(Cl)cc(C(=O)Nc2nc3ccc(C(F)(F)F)cc3s2)c1O [drawing 324] |  | [drawing 324] | 
 | O=C(Nc1nc2ccc(C(F)(F)F)cc2s1)c1cc(Cl)ccc1O [drawing 303] |  | [drawing 303] | 
 | O=C(Nc1nc2ccc(C(F)(F)F)cc2s1)c1cc(Cl)ccc1O [drawing 300] |  | [drawing 300] | 
 | O=C(Nc1nc2ccc(C(F)(F)F)cc2s1)c1cc(Cl)ccc1O [Compound 31 in WO 2016/081599, reference compound] |  |  | AUC(0-t) at 24 h ([1]; 20 mg/kg): ~2400 ng·h/mL
 | O=C(Nc1nc2ccc(C(F)(F)F)cc2s1)c1cc(Cl)ccc1O [drawing 315] |  | [drawing 315] | 
 | COCCOCc1cc(C(F)(F)F)cc2sc(NC(=O)c3cc(Cl)cc(C)c3O)nc12 [drawing 339] |  | [drawing 339] | 
 | Cc1cc(Cl)cc(C(=O)Nc2nc3ccc(C(F)(F)F)cc3s2)c1O [drawing 327] |  | [drawing 327] | 
 | O=C(Nc1nc2ccc(C(F)(F)F)cc2s1)c1cc(Cl)ccc1O [drawing 318] |  | [drawing 318] | 
 | O=C(Nc1nc2ccc(C(F)(F)F)cc2s1)c1cc(Cl)ccc1O [drawing 321] |  | [drawing 321] | 
 | O=C(Nc1nc2ccc(C(F)(F)F)cc2s1)c1cc(Cl)ccc1O [drawing 312] |  | [drawing 312] | 
10000 to 30000 | COCCN(CCOC)Cc1cc(Cl)cc(C(=O)Nc2nc3c(COC)cc(C(F)(F)F)cc3s2)c1O [Compound 69, 3-((bis(2-methoxyethyl)amino)methyl)-5-chloro-2-hydroxy-N-(4-(methoxymethyl)-6-(trifluoromethyl)benzo[d]thiazol-2-yl)benzamide] | < 5 |  | effect on oxygen consumption rate (OCR) (C2C12 cells; in words): increase OCR in the presence of oligomycin

AUC at 24 h [1] [ng·h/mL] | SMILES | minimal effective concentration (C2C12 cells) [µM] | C10%TMRE/Cmin-OCR [2] | also measured
 | COCCOCc1cc(C(F)(F)F)cc2sc(NC(=O)c3cc(Cl)cc(C)c3O)nc12 [drawing 342] |  | [drawing 342] | 
> 120000 | COCc1cc(Cl)cc(C(=O)Nc2nc3ccc(C(F)(F)F)cc3s2)c1O [Compound 9, 5-chloro-2-hydroxy-3-(methoxymethyl)-N-(6-(trifluoromethyl)benzo[d]thiazol-2-yl)benzamide] | < 5 |  | AUC(0-t) at 24 h ([1]; 10 mg/kg): 180000 ng·h/mL
30000 to 60000 | COCCOCc1cc(Cl)cc(C(=O)Nc2ccc(C(F)(F)F)cc2Cl)c1O [Compound 4, 5-chloro-N-(2-chloro-4-(trifluoromethyl)phenyl)-2-hydroxy-3-((2-methoxyethoxy)methyl)benzamide] | < 5 |  | 
30000 to 60000 | COCCOCc1cc(C(F)(F)F)cc2sc(NC(=O)c3cc(Cl)cc(CN4CCCCC4)c3O)nc12 [Compound 66, 5-chloro-2-hydroxy-N-(4-((2-methoxyethoxy)methyl)-6-(trifluoromethyl)benzo[d]thiazol-2-yl)-3-(piperidin-1-ylmethyl)benzamide] | < 5 |  | 
 | O=C(Nc1nc2ccc(C(F)(F)F)cc2s1)c1cc(Cl)ccc1O [drawing 306] |  | [drawing 306] | 
30000 to 60000 | O=C(Nc1nc2ccc(C(F)(F)F)cc2s1)c1cc(Cl)cc(CN2CCC2)c1O [Compound 27, 3-(azetidin-1-ylmethyl)-5-chloro-2-hydroxy-N-(6-(trifluoromethyl)benzo[d]thiazol-2-yl)benzamide] | < 5 |  | 
10000 to 30000 | COCCN(C)Cc1cc(Cl)cc(C(=O)Nc2nc3ccc(C(F)(F)F)cc3s2)c1O [Compound 3, 5-chloro-2-hydroxy-3-(((2-methoxyethyl)(methyl)amino)methyl)-N-(6-(trifluoromethyl)benzo[d]thiazol-2-yl)benzamide] | < 5 |  | 
10000 to 30000 | O=C(Nc1nc2ccc(C(F)(F)F)cc2s1)c1cc(Cl)cc(CN2CCCCC2)c1O [Compound 26, 5-chloro-2-hydroxy-3-(piperidin-1-ylmethyl)-N-(6-(trifluoromethyl)benzo[d]thiazol-2-yl)benzamide] | < 5 |  | 
> 120000 | O=C(Nc1nc2ccc(C(F)(F)F)cc2s1)c1cc(Cl)cc(C2CCOC2)c1O (centres unmarked) [Compound 14, 5-chloro-2-hydroxy-3-(tetrahydrofuran-3-yl)-N-(6-(trifluoromethyl)benzo[d]thiazol-2-yl)benzamide] | < 5 |  | 
 | O=C(Nc1nc2ccc(C(F)(F)F)cc2s1)c1cc(Cl)cc(CN2CCCC(C(F)(F)F)C2)c1O (centres unmarked) [Example 61, 5-chloro-2-hydroxy-N-(6-(trifluoromethyl)benzo[d]thiazol-2-yl)-3-((3-(trifluoromethyl)piperidin-1-yl)methyl)benzamide] | < 5 |  | 
 | COCCN(CCOC)Cc1cc(Cl)cc(C(=O)Nc2nc3c(CNS(C)(=O)=O)cc(C(F)(F)F)cc3s2)c1O [Example 74, 3-((bis(2-methoxyethyl)amino)methyl)-5-chloro-2-hydroxy-N-(4-(methylsulfonamidomethyl)-6-(trifluoromethyl)benzo[d]thiazol-2-yl)benzamide] | < 5 |  | 
30000 to 60000 | COC1CCN(Cc2cc(Cl)cc(C(=O)Nc3nc4ccc(C(F)(F)F)cc4s3)c2O)C1 (centres unmarked) [Compound 32, 5-chloro-2-hydroxy-3-((3-methoxypyrrolidin-1-yl)methyl)-N-(6-(trifluoromethyl)benzo[d]thiazol-2-yl)benzamide] | < 5 |  | 
 | N#CC1CCN(Cc2cc(Cl)cc(C(=O)Nc3ccc(C(F)(F)F)nc3)c2O)C1 (centres unmarked) [Compound 55, 5-chloro-3-((3-cyanopyrrolidin-1-yl)methyl)-2-hydroxy-N-(6-(trifluoromethyl)pyridin-3-yl)benzamide] | < 5 |  | 
 | COCCOCc1cc(I)cc(C(=O)Nc2nc3ccc(C(F)(F)F)cc3s2)c1O [Compound 46, 2-hydroxy-5-iodo-3-((2-methoxyethoxy)methyl)-N-(6-(trifluoromethyl)benzo[d]thiazol-2-yl)benzamide] | < 5 |  | 
> 120000 | COCCOCc1cc(Cl)cc(C(=O)Nc2nc3ccc(C(F)(F)F)cc3s2)c1O [Compound 2, 5-chloro-2-hydroxy-3-((2-methoxyethoxy)methyl)-N-(6-(trifluoromethyl)benzo[d]thiazol-2-yl)benzamide] | < 5 |  | AUC(0-t) at 24 h ([1]; 10 mg/kg): 485000 ng·h/mL
 | COCOCc1cc(Cl)cc(C(=O)Nc2nc3ccc(C(F)(F)F)cc3s2)c1O [Compound 1, 5-chloro-2-hydroxy-3-((methoxymethoxy)methyl)-N-(6-(trifluoromethyl)benzo[d]thiazol-2-yl)benzamide] | < 5 |  | 

Source: US20260306502A1, “MITOCHONDRIAL UNCOUPLERS FOR TREATMENT OF METABOLIC DISEASES AND CANCER” (Mito Biopharma, LLC, priority 2022, published 2026)
